For data set [1] the following is noted: for mass density: 101.33 kPa.
Data set [2] in a line: refractive index (Na D-line) (dimensionless). Particulars: 101.33 kPa, Liquid, Standard Abbe refractometry.

One may read the mass density as the mass of a sample divided by its volume. In general, vapor or sublimation pressure refers to the pressure of vapour in equilibrium with the condensed phase. One may read the refractive index as a measure of how strongly the sample bends light.

± gives the expanded uncertainty stated by the source.

Regarding `Cc1ccc(O)cc1` [4-methylphenol], in data set [1] (298.15 K, Crystal), the mass density is given as 1154 ± 2.1 kg/m3. Also, the “vapor or sublimation pressure” value in data set [1] (475.35 K, Liquid) is listed as 94.95 ± 5 kPa. For the same compound, in data set [2] (298.15 K), the refractive index is recorded as 1.5391 ± 0.0008.
Turning to `CN(C)C=O` [dimethylformamide], in data set [1] (293.15 K, Liquid), the mass density is 948.7 ± 1.6 kg/m3. Further, the “vapor or sublimation pressure” value in data set [1] (424.15 K, Liquid) is 94.95 ± 5 kPa. In addition, in data set [2] (293.15 K), the refractive index is on record as 1.4305 ± 0.0008.
Take `Brc1ccccc1` [bromobenzene]: the mass density in data set [1] (293.15 K, Liquid) was 1488.2 ± 2.8 kg/m3. Also, the “vapor or sublimation pressure” value in data set [1] (426.85 K, Liquid) is 94.95 ± 5 kPa. Further, the refractive index in data set [2] (293.15 K) is listed as 1.5571 ± 0.0008.
Turning to `Cc1cccc(O)c1` [3-methylphenol], the mass density in data set [1] (298.15 K, Liquid) worked out at 1030 ± 1.8 kg/m3. Besides, the “vapor or sublimation pressure” value in data set [1] (473.55 K, Liquid) was found to be 94.95 ± 5 kPa. In data set [2] (298.15 K), the refractive index is on record as 1.5395 ± 0.0008.
For the compound `O=[N+]([O-])c1ccccc1` [nitrobenzene], the mass density in data set [1] (298.15 K, Liquid) is 1198 ± 2.2 kg/m3. Further, in data set [1] (481.15 K, Liquid), the “vapor or sublimation pressure” value amounted to 94.95 ± 5 kPa. Besides, the refractive index in data set [2] (298.15 K) is 1.55 ± 0.0008.
For `Cc1ccccc1O` [2-methylphenol], the mass density in data set [1] (298.15 K, Liquid) is 1046 ± 1.8 kg/m3. In data set [1] (463.55 K, Liquid), the “vapor or sublimation pressure” value amounted to 94.95 ± 5 kPa. In addition, the refractive index in data set [2] (298.15 K) is 1.5467 ± 0.0008.

The record behind these values is the NIST ThermoML archive (doi:10.1016/j.fluid.2006.12.010).
